Laboratory results as given in the supplement of paper PMC10307832.

Legend:
Assay in all cases: relative viability (nuclei count vs DMSO), 5 days (fraction); higher = more cells survive
Entinostat + Crizotinib = compound: Nc1ccccc1NC(=O)c1ccc(CNC(=O)OCc2cccnc2)cc1 [Entinostat] + C[C@@H](Oc1cc(-c2cnn(C3CCNCC3)c2)cnc1N)c1c(Cl)ccc(F)c1Cl [Crizotinib] (partner 1 µM)
Procedure, shortened: (§1)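 Dosing by pin tool came one day after lung cancer cell lines were seeded in 1536-well plates, using either one drug or a fixed anchor-drug dose plus five library-drug doses (not always all listed) in √10 steps. After 5 days, nuclei were counted on 4× images. Relative viability is treated-well nuclei count divided by vehicle-well nuclei count, and values are medians of duplicate plates.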

SGI-1776 + Bortezomib = compound: CN1CCC(CNc2ccc3ncc(-c4cccc(OC(F)(F)F)c4)n3n2)CC1 [SGI-1776] + CC(C)C[C@H](NC(=O)[C@H](Cc1ccccc1)NC(=O)c1cnccn1)B(O)O [Bortezomib] (partner 0.002 µM)
Procedure, shortened: as §1

Entinostat + Lapatinib = compound: Nc1ccccc1NC(=O)c1ccc(CNC(=O)OCc2cccnc2)cc1 [Entinostat] + CS(=O)(=O)CCNCc1ccc(-c2ccc3ncnc(Nc4ccc(OCc5cccc(F)c5)c(Cl)c4)c3c2)o1 [Lapatinib] (partner 2 µM)
Procedure, shortened: as §1

Entinostat + Foretinib = compound: Nc1ccccc1NC(=O)c1ccc(CNC(=O)OCc2cccnc2)cc1 [Entinostat] + COc1cc2c(Oc3ccc(NC(=O)C4(C(=O)Nc5ccc(F)cc5)CC4)cc3F)ccnc2cc1OCCCN1CCOCC1 [Foretinib] (partner 0.25 µM)
Procedure, shortened: as §1

Cell Line	relative viability (Entinostat + Crizotinib; first compound 0.02 µM)	relative viability (Entinostat + Crizotinib; first compound 0.06325 µM)	relative viability (Entinostat + Crizotinib; first compound 0.2 µM)	relative viability (Entinostat + Crizotinib; first compound 0.6325 µM)	relative viability (Entinostat + Crizotinib; first compound 2 µM)	relative viability (SGI-1776 + Bortezomib; first compound 0.08 µM)	relative viability (SGI-1776 + Bortezomib; first compound 0.8 µM)	relative viability (SGI-1776 + Bortezomib; first compound 2.53 µM)	relative viability (SGI-1776 + Bortezomib; first compound 8 µM)	relative viability (Entinostat + Lapatinib; first compound 0.02 µM)	relative viability (Entinostat + Lapatinib; first compound 0.06325 µM)	relative viability (Entinostat + Lapatinib; first compound 0.2 µM)	relative viability (Entinostat + Lapatinib; first compound 0.6325 µM)	relative viability (Entinostat + Lapatinib; first compound 2 µM)	relative viability (Entinostat + Foretinib; first compound 0.02 µM)	relative viability (Entinostat + Foretinib; first compound 0.06325 µM)	relative viability (Entinostat + Foretinib; first compound 0.2 µM)	relative viability (Entinostat + Foretinib; first compound 0.6325 µM)	relative viability (Entinostat + Foretinib; first compound 2 µM)
SK-LU-1	0.935	0.756	0.733	0.572	0.511	1.28	1.31	1.52	0.807	0.825	0.775	0.55	0.573	0.516	0.865	0.847	0.836	0.589	0.447
NCI-H838	0.995	0.818	0.949	0.536	0.229	0.848	0.973	0.764	0.353	1.13	1.12	0.983	0.696	0.255	1.05	1.23	1.12	0.746	0.321
LOU-NH91	0.705	0.754	0.757	0.742	0.678	0.482	0.565	0.489	0.458	0.781	0.848	0.769	0.765	0.561	0.937	0.984	0.919	0.844	0.779
BEN	0.985	0.884	0.997	0.631	0.31	0.909	0.918	0.754	0.624	0.894	0.743	0.562	0.373	0.219	0.782	0.756	0.465	0.498	0.283
NCI-H2085	0.991	0.933	0.769	0.57	0.414	1.14	1.16	1	0.922	0.748	0.825	0.744	0.545	0.443	1.01	0.969	0.984	0.54	0.401
ABC-1	0.925	1.24	1.17	0.814	0.28	0.299	0.323	0.364	0.241	1.43	1.38	1.56	1.38	1.21	1.05	1.19	0.906	0.805	0.545
NCI-H650	0.673	0.564	0.586	0.473	0.222	0.95	0.755	0.836	0.622	1.02	1.24	0.976	0.543	0.199	1.16	0.933	1.04	0.839	0.477
EPLC-272H	0.924	0.872	0.933	0.61	0.322	0.939	1.06	0.927	0.739	0.951	0.831	1.27	0.365	0.334	0.684	0.783	0.512	0.243	0.223
NCI-H1563	0.781	0.907	0.759	0.711	0.735	0.934	0.849	0.847	0.692	0.915	1.01	0.891	0.821	0.581	0.543	0.918	0.823	0.77	0.609
EKVX	0.81	0.977	1.03	0.819	0.432	0.98	1.05	1.14	0.972	0.254	0.219	0.209	0.161	0.153	0.879	0.996	0.863	0.572	0.409
NCI-H1666	0.973	1.16	0.843	0.404	0.321	0.81	0.826	0.918	0.56	0.624	0.564	0.566	0.282	0.264	1.06	1.02	0.964	0.537	0.366
HCC-15	0.792	0.744	0.745	0.548	0.307	1.03	1.03	1.02	0.886	0.866	0.779	0.726	0.345	0.288	0.984	0.886	0.802	0.592	0.331
LCLC-97TM1	0.285	0.435	0.303	0.273	0.151	0.775	0.557	0.549	0.567	0.942	1.21	0.784	0.41	0.326	1.05	0.934	1	0.995	0.844
NCI-H2347	0.686	0.581	0.653	0.5	0.408	1.04	0.961	1.15	0.897	1.05	0.983	0.784	0.502	0.369	0.837	0.812	0.454	0.254	0.37
NCI-H1915	0.854	0.869	0.862	0.739	0.328	1.01	0.985	0.932	0.935	0.985	1.05	1.01	0.633	0.315	1.06	1.06	1.07	1	0.592
NCI-H647	1.1	0.966	0.749	0.301	0.102	1.24	0.964	0.888	0.837	0.936	0.868	0.996	0.322	0.101	1.23	1.12	0.826	0.465	0.23
NCI-H1650	0.923	0.928	0.988	0.729	0.359	0.217	0.18	0.207	0.181	0.79	0.897	0.888	0.521	0.329	1.08	1.06	1.11	0.681	0.57
